System: HeLa cells

## N#Cc1c(-n2c(Br)c(Br)c3cc(Br)ccc32)[nH]c2c(Br)cc(Br)cc12 [AETX, aetokthonotoxin]
  Cytotoxicity EC50 on HeLa cells converted to mass concentration: 0.65 µg/mL
  EC50: 1000 nM

— PMC10556625 (Proceedings of the National Academy of Sciences of the …, 2023)
